# Assay results: patent US20090036450A1, “PYRAZOLE COMPOUNDS AND USE THEREOF” (JAPAN TOBACCO, INC., priority 2006, published 2009)
# pIC50: −log10 of the molar value.
# Biological target: T1, human liver glycogen phosphorylase (Homo sapiens, UniProt P06737)
# T1 construct: made in house; host or cells: Sf9 insect cells (suspension of disrupted cells, diluted in BES buffer, not purified)
# T1 sequence (P06737 1-847): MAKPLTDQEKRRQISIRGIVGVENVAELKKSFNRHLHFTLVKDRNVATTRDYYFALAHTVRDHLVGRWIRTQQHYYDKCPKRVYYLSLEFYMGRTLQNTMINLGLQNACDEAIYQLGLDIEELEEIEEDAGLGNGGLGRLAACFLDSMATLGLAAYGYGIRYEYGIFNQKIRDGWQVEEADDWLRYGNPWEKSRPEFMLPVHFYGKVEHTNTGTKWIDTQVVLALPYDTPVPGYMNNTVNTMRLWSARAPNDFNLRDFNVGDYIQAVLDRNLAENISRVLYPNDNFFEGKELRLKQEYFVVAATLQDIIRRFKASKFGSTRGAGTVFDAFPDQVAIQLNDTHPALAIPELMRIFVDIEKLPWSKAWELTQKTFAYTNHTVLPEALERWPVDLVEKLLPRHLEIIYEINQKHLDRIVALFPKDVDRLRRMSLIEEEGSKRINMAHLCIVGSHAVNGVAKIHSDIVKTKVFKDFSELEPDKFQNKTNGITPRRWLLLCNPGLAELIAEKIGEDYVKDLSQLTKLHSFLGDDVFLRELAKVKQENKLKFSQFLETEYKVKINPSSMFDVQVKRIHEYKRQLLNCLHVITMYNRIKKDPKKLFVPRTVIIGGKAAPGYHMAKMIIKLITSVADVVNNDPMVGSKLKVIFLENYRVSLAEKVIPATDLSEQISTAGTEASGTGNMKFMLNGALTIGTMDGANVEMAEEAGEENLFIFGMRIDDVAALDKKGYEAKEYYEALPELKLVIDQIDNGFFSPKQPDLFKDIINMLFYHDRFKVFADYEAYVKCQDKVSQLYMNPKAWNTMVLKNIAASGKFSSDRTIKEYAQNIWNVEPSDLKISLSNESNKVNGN
# Test: Liver glycogen phosphorylase activity, forward reaction system (NADPH detection at 340 nm)
# Type: biochemical
# Conditions: enzyme inhibitory activity against recombinant human liver glycogen phosphorylase (Sf9 cell lysate), room temperature, 75 minutes
# Procedure: The glycogen phosphorylase activity was determined by a method using a forward reaction system.
# The following method was used to determine the glycogen phosphorylase activity using a forward reaction system. Glucose-1-phosphate generated from glycogen by glycogen phosphorylase was converted to glucono-δ-lactone-6-phosphate by transphosphorylation and dehydrogenation reactions using phosphoglucomutase and glucose-6-phosphate dehydrogenase (G6PDH). At this time, NADPH generated from NADP in the dehydrogenation reaction by G6PDH was detected.
# An enzyme solution of human liver glycogen phosphorylase was obtained by diluting with 100 mmol/L BES buffer (pH 6.8, containing 2 mmol/L EDTA) a suspension disrupted Sf9 cells in which a recombinant human liver glycogen phosphorylase was forcibly expressed. Phosphate buffer (16 mmol/L KH2PO4, containing 24 mmol/L Na2HPO4) was used as a substrate solution. A mixture of 8 U/mL phosphoglucomutase and 60 U/mL G6PDH was prepared with BES buffer. A reaction buffer (1.4 mmol/L NADP, 30 mmol/L MgCl2, 8 μmol/L glucose-1,6-diphosphate, 8 mg/mL glycogen, 40 mmol/L BES, containing 0.8 mmol/L EDTA) and a glucose solution (75 mmol/L glucose and 100 mmol/L BES, containing 2 mmol/L EDTA) were prepared. A test substance was dissolved in 1% DMSO aqueous solution.
# To a mixture of the glucose solution (20 μL), the substrate solution (20 μL), the reaction buffer (100 μL), and the test substance (20 μL), the recombinant human liver glycogen phosphorylase solution (20 μL), and a mixture (20 μL) of phosphoglucomutase and G6PDH were added to initiate an enzymatic reaction. To a control, 1% DMSO aqueous solution was added instead of the test substance. A solution to which the substrate was not added was used as a blank. After initiation of the reaction, absorbance at 340 nm was measured immediately. The reaction was performed at room temperature for 75 minutes, and then absorbance at 340 nm was measured again. The enzyme activity was obtained by deducting the change in absorbance of the blank for 75 minutes from the change in absorbance over 75 minutes. The inhibition rate (%) of the test substance was calculated by “(1−(enzyme activity of test substance)/(enzyme activity of control))×100”.
# “IC50” represents an enzyme inhibitory activity against human liver glycogen phosphorylase.
row,Compound,pIC50
1,"CCOC(=O)c1ccc(CNC(=O)c2cc(NC(=O)c3cc(F)c(F)cc3Cl)[nH]n2)o1 [Example 1-1, 5-(2-chloro-4,5-difluoro-benzoylamino)-1H-pyrazole-3-carboxylic acid (5-ethoxycarbonyl-furan-2-ylmethyl)-amide]",> 7.00
2,"CCN(CC)S(=O)(=O)c1ccsc1CNC(=O)c1cc(NC(=O)c2cc(F)c(F)cc2Cl)[nH]n1 [Example 1-2, 5-(2-chloro-4,5-difluoro-benzoylamino)-1H-pyrazole-3-carboxylic acid (3-diethylsulfamoyl-thiophen-2-ylmethyl)-amide]",6.52 to 7.00
3,"O=C(NCc1sccc1OCc1ccccc1)c1cc(NC(=O)c2cc(F)c(F)cc2Cl)[nH]n1 [Example 1-3, 5-(2-chloro-4,5-difluoro-benzoylamino)-1H-pyrazole-3-carboxylic acid (3-benzyloxy-thiophen-2-ylmethyl)-amide]",6.52 to 7.00
4,"Cc1ccc(-c2nc(C)c(CNC(=O)c3cc(NC(=O)c4cc(F)c(F)cc4Cl)[nH]n3)s2)s1 [Example 1-7, 5-(2-chloro-4,5-difluoro-benzoylamino)-1H-pyrazole-3-carboxylic acid [4-methyl-2-(5-methyl-thiophen-2-yl)-thiazol-5-ylmethyl]-amide]",> 7.00
5,"Cc1nc(-c2ccc(Cl)s2)sc1CNC(=O)c1cc(NC(=O)c2cc(F)c(F)cc2Cl)[nH]n1 [Example 1-8, 5-(2-chloro-4,5-difluoro-benzoylamino)-1H-pyrazole-3-carboxylic acid [2-(5-chlorothiophen-2-yl)-4-methyl-thiazol-5-ylmethyl]-amide]",> 7.00
6,"Cc1nc(-c2cc3ccccc3s2)sc1CNC(=O)c1cc(NC(=O)c2cc(F)c(F)cc2Cl)[nH]n1 [Example 1-9, 5-(2-chloro-4,5-difluoro-benzoylamino)-1H-pyrazole-3-carboxylic acid (2-benzo[b]thiophen-2-yl-4-methyl-thiazol-5-ylmethyl)-amide]",> 7.00
7,"CCOC(=O)c1nc(C)c(CNC(=O)c2cc(NC(=O)c3cc(F)c(F)cc3Cl)[nH]n2)s1 [Example 1-10, 5-(2-chloro-4,5-difluoro-benzoylamino)-1H-pyrazole-3-carboxylic acid (2-ethoxycarbonyl-4-methyl-thiazol-5-ylmethyl)-amide]",> 7.00
8,"Cc1nc(C23CC4CC(CC(C4)C2)C3)c(CNC(=O)c2cc(NC(=O)c3cc(F)c(F)cc3Cl)[nH]n2)s1 [Example 1-11, 5-(2-chloro-4,5-difluoro-benzoylamino)-1H-pyrazole-3-carboxylic acid (4-adamantan-1-yl-2-methyl-thiazol-5-ylmethyl)-amide]",> 7.00
9,Cc1nc2c(s1)CN(C(=O)c1cc(NC(=O)c3cc(F)c(F)cc3Cl)[nH]n1)CC2 [Example 1-12],6.52 to 7.00
10,"CCOC(=O)c1[nH]c(CNC(=O)c2cc(NC(=O)c3cc(F)c(F)cc3Cl)[nH]n2)nc1C [Example 1-13, 5-(2-chloro-4,5-difluoro-benzoylamino)-1H-pyrazole-3-carboxylic acid (5-ethoxycarbonyl-4-methyl-1H-imidazol-2-ylmethyl)-amide]",> 7.00
11,"Cc1nc(C)c(-c2onc(C)c2CNC(=O)c2cc(NC(=O)c3cc(F)c(F)cc3Cl)[nH]n2)s1 [Example 1-22, 5-(2-chloro-4,5-difluoro-benzoylamino)-1H-pyrazole-3-carboxylic acid [5-(2,4-dimethyl-thiazol-5-yl)-3-methylisoxazol-4-ylmethyl]-amide]",> 7.00
12,"CCOC(=O)c1cc(CNC(=O)c2cc(NC(=O)c3cc(F)c(F)cc3Cl)[nH]n2)on1 [Example 1-23, 5-(2-chloro-4,5-difluoro-benzoylamino)-1H-pyrazole-3-carboxylic acid (3-ethoxycarbonylisoxazol-5-ylmethyl)-amide]",> 7.00

# Continued, values first:
row,pIC50,Compound
1,> 7.00,"Cc1nc(-c2ccc(CNC(=O)c3cc(NC(=O)c4cc(F)c(F)cc4Cl)[nH]n3)s2)cs1 [Example 1-4, 5-(2-chloro-4,5-difluoro-benzoylamino)-1H-pyrazole-3-carboxylic acid [5-(2-methyl-thiazol-4-yl)-thiophen-2-ylmethyl]-amide]"
2,> 7.00,"O=C(NCc1csc(-c2ccc(Cl)cc2)n1)c1cc(NC(=O)c2cc(F)c(F)cc2Cl)[nH]n1 [Example 1-5, 5-(2-chloro-4,5-difluoro-benzoylamino)-1H-pyrazole-3-carboxylic acid [2-(4-chloro-phenyl)-thiazol-4-ylmethyl]-amide]"
3,6.52 to 7.00,"Cc1nc(-c2ccc(C(F)(F)F)cc2)sc1CNC(=O)c1cc(NC(=O)c2cc(F)c(F)cc2Cl)[nH]n1 [Example 1-6, 5-(2-chloro-4,5-difluoro-benzoylamino)-1H-pyrazole-3-carboxylic acid [4-methyl-2-(4-trifluoromethyl-phenyl)-thiazol-5-ylmethyl]-amide]"
4,> 7.00,"Cc1onc(-c2ccc(C#N)cc2)c1CNC(=O)c1cc(NC(=O)c2cc(F)c(F)cc2Cl)[nH]n1 [Example 1-14, 5-(2-chloro-4,5-difluoro-benzoylamino)-1H-pyrazole-3-carboxylic acid [3-(4-cyano-phenyl)-5-methylisoxazol-4-ylmethyl]-amide]"
5,> 7.00,"Cc1onc(-c2ccc(N(C)C)cc2)c1CNC(=O)c1cc(NC(=O)c2cc(F)c(F)cc2Cl)[nH]n1 [Example 1-15, 5-(2-chloro-4,5-difluoro-benzoylamino)-1H-pyrazole-3-carboxylic acid [3-(4-dimethylamino-phenyl)-5-methylisoxazol-4-ylmethyl]-amide]"
6,> 7.00,"Cc1onc(-c2ccc(S(C)(=O)=O)cc2)c1CNC(=O)c1cc(NC(=O)c2cc(F)c(F)cc2Cl)[nH]n1 [Example 1-16, 5-(2-chloro-4,5-difluoro-benzoylamino)-1H-pyrazole-3-carboxylic acid [3-(4-methanesulfonyl-phenyl)-5-methylisoxazol-4-ylmethyl]-amide]"
7,6.52 to 7.00,"Cc1onc(-c2ccccc2F)c1CNC(=O)c1cc(NC(=O)c2cc(F)c(F)cc2Cl)[nH]n1 [Example 1-17, 5-(2-chloro-4,5-difluoro-benzoylamino)-1H-pyrazole-3-carboxylic acid [3-(2-fluoro-phenyl)-5-methylisoxazol-4-ylmethyl]-amide]"
8,> 7.00,"Cc1cc(-c2onc(C)c2CNC(=O)c2cc(NC(=O)c3cc(F)c(F)cc3Cl)[nH]n2)no1 [Example 1-18, 5-(2-chloro-4,5-difluoro-benzoylamino)-1H-pyrazole-3-carboxylic acid (5,3′-dimethyl-[3,5′]biisoxazolyl-4′-ylmethyl)-amide]"
9,> 7.00,"Cc1cccc(-c2onc(C)c2CNC(=O)c2cc(NC(=O)c3cc(F)c(F)cc3Cl)[nH]n2)n1 [Example 1-19, 5-(2-chloro-4,5-difluoro-benzoylamino)-1H-pyrazole-3-carboxylic acid [3-methyl-5-(6-methyl-pyridin-2-yl)-isoxazol-4-ylmethyl]-amide]"
10,> 7.00,"Cc1noc(-c2ccnc(Cl)c2)c1CNC(=O)c1cc(NC(=O)c2cc(F)c(F)cc2Cl)[nH]n1 [Example 1-20, 5-(2-chloro-4,5-difluoro-benzoylamino)-1H-pyrazole-3-carboxylic acid [5-(2-chloro-pyridin-4-yl)-3-methylisoxazol-4-ylmethyl]-amide]"
11,> 7.00,"Cc1ccc(-c2onc(C)c2CNC(=O)c2cc(NC(=O)c3cc(F)c(F)cc3Cl)[nH]n2)cn1 [Example 1-21, 5-(2-chloro-4,5-difluoro-benzoylamino)-1H-pyrazole-3-carboxylic acid [3-methyl-5-(6-methyl-pyridin-3-yl)-isoxazol-4-ylmethyl]-amide]"
